From ChEMBL document CHEMBL4342412, “How To Design Selective Ligands for Highly Conserved Binding Sites: A Case Study Using N-Myristoyltransferases as a Model System” (J Med Chem, 2020)
Calls of active or inactive are those of the source. No cut-off for these calls is given here.

Key:
[1] = target: T1, Glycylpeptide N-tetradecanoyltransferase (Leishmania major) (UniProt Q4Q5S8)
T1 sequence (whole entry): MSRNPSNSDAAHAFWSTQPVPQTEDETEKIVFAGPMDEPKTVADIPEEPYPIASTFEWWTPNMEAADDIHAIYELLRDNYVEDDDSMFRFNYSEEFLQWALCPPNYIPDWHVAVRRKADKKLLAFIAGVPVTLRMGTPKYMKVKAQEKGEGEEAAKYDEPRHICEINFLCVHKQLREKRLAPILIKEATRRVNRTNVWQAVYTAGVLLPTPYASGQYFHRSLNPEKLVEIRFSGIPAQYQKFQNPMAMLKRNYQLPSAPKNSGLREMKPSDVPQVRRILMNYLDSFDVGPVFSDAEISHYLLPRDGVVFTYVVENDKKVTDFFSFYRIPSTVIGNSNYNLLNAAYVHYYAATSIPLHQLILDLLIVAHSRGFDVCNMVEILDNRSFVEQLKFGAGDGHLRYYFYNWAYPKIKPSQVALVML

[2] = target: T2, Glycylpeptide N-tetradecanoyltransferase (Leishmania major, UniProt Q4Q5S8)
T2 sequence (Q4Q5S8 whole entry): T1 sequence (whole entry)

[3] = target: T3, Glycylpeptide N-tetradecanoyltransferase 1 (Homo sapiens, UniProt P30419)
T3 sequence (P30419 whole entry): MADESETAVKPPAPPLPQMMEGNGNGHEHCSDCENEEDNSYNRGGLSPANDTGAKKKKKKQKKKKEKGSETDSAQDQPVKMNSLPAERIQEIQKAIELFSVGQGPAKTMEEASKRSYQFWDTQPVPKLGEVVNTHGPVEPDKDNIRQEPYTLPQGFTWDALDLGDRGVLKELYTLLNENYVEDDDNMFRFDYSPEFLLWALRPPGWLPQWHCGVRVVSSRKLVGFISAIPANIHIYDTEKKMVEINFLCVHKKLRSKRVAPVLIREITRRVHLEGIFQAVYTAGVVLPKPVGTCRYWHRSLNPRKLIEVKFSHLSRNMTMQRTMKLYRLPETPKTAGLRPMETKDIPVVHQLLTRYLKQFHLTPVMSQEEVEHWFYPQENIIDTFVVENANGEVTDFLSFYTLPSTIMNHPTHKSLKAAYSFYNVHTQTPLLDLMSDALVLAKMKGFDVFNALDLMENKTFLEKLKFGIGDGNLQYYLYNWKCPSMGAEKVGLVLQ

[4] = target: T4, Glycylpeptide N-tetradecanoyltransferase 1 (Homo sapiens, UniProt P30419, A452M/L453V/L462V/L495M/N473H/Q496L/R295Q/W297F)
T4 sequence (P30419 whole entry R295Q/W297F/A452M/L453V/L462V/N473H/L495M/Q496L): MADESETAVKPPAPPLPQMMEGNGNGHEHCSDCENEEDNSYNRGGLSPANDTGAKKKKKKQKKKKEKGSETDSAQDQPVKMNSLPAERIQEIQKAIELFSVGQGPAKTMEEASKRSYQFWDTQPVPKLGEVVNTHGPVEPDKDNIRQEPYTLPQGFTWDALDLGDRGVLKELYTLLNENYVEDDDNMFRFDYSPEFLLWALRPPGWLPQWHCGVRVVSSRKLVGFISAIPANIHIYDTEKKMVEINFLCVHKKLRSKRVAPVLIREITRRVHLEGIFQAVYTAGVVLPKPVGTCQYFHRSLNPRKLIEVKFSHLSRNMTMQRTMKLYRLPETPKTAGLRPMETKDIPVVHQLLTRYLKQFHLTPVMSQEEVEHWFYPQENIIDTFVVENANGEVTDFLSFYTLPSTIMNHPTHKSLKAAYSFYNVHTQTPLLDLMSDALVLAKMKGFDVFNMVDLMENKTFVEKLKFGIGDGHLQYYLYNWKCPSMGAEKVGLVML

[5] = target: T1, Glycylpeptide N-tetradecanoyltransferase (Leishmania major); details: 500 uM
[6] = target: T5, NMT1 (glycylpeptide N-tetradecanoyltransferase 1) (Homo sapiens, UniProt P30419); details: probe GSNKSKPK peptide
T5 sequence (P30419 whole entry): T3 sequence (P30419 whole entry)

[7] = target: T4, Glycylpeptide N-tetradecanoyltransferase 1; details: 0.5 h
[8] = target: Genome polyprotein (dengue virus type 2) (UniProt P29990); experiment: Inhibition of Dengue virus 2 NS2B-NS3 protease at 100 uM
[9] = target: Glycylpeptide N-tetradecanoyltransferase (Leishmania major, UniProt Q4Q5S8, H398N); experiment: Inhibition of Leishmania major NMT H398N mutant expressed in Escherichia coli Rosetta-2 cells using GSNKSKPK as substrate in presence of MyrCoA after 30 mins by CPM dye based fluorescence assay
Glycylpeptide N-tetradecanoyltransferase (Leishmania major, UniProt Q4Q5S8, H398N), sequence (Q4Q5S8 whole entry H398N): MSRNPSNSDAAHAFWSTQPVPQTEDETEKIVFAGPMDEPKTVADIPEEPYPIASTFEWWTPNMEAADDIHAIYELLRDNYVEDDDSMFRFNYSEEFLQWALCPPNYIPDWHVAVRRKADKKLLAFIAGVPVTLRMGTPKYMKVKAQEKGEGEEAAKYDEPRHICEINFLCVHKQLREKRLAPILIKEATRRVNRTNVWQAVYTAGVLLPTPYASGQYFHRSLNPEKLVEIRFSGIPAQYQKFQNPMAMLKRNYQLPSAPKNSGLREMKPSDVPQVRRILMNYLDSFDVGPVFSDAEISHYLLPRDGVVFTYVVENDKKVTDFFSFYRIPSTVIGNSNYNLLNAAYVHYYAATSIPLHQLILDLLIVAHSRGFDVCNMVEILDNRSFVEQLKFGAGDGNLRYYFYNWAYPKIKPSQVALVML

[10] = target: Glycylpeptide N-tetradecanoyltransferase (Leishmania major, UniProt Q4Q5S8, L421Q); experiment: Inhibition of Leishmania major NMT L421Q mutant expressed in Escherichia coli Rosetta-2 cells using GSNKSKPK as substrate in presence of MyrCoA after 30 mins by CPM dye based fluorescence assay
Glycylpeptide N-tetradecanoyltransferase (Leishmania major, UniProt Q4Q5S8, L421Q), sequence (Q4Q5S8 whole entry L421Q): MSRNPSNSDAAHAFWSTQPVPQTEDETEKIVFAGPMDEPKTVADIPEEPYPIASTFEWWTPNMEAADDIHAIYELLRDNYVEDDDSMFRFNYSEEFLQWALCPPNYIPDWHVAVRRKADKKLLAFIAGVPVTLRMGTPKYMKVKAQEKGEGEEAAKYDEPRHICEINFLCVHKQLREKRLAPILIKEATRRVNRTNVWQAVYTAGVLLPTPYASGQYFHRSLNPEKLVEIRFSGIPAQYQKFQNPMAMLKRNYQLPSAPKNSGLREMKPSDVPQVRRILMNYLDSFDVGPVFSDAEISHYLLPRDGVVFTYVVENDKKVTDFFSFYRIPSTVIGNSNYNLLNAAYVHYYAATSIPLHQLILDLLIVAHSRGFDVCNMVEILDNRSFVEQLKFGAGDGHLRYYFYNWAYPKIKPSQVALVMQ

[11] = target: Glycylpeptide N-tetradecanoyltransferase 1 (Homo sapiens, UniProt P30419, L495M/N473H/Q496L)
Glycylpeptide N-tetradecanoyltransferase 1 (Homo sapiens, UniProt P30419, L495M/N473H/Q496L), sequence (P30419 whole entry N473H/L495M/Q496L): as the sequence (P30419 whole entry R295Q/W297F/A452M/L453V/L462V/N473H/L495M/Q496L) above, with Q295R, F297W, M452A, V453L, V462L counted along it

[12] = tested on: human NMT1 versus Leishmania major NMT; experiment: in vitro; details: human (numerator) and Leishmania major (denominator)
Description: Selectivity index, ratio of Ki for inhibition of N-terminal TEV cleavage site-fused His6 tagged human NMT1 (115 to 496 residues) to Ki for inhibition of N-terminal TEV cleavage site-fused His6 tagged Leishmania major NMT (11 to 421 residues)

| inhibition [1] | inhibition [5] | inhibition [8] | SMILES | Ki [2] | Ki [3] | Ki [4] | Ki [9] | Ki [10] | further results |
| --- | --- | --- | --- | --- | --- | --- | --- | --- | --- |
| Dose-dependent effect | 91% | inactive | COc1ccccc1-n1cc(-c2ccnc(NCCC3CCCN3C)n2)cn1 (centres undefined) | 19.6 nM | > 40 nM | 16700 nM | – | – | inhibition at 0.5 h, 500 µM [6]: 59%; inhibition at 500 µM [7]: 98% |
| Dose-dependent effect | 90% | inactive | Cc1cncn1C(C)C(=O)NCc1cccnc1C1CCCN(C)CC1 (centres undefined) | 52.3 nM | – | – | – | – | – |
| Dose-dependent effect | 97% | inactive | COc1cccc(-n2cc(-c3ccnc(NCCC4CCCN4C)n3)cn2)c1 (centres undefined) | 7.3 nM | – | – | – | – | – |
| – | – | – | Cc1nn(C)c(C)c1NS(=O)(=O)c1c(Cl)cc(-c2ccnc(N3CCN(C)CC3)c2)cc1Cl | 1.4 nM | – | – | 8.5 nM | 6 nM | – |
| – | – | – | Cc1nn(C)c(C)c1N(C)S(=O)(=O)c1c(Cl)cc(CCCN2CCN3CCC[C@@H]3C2)cc1Cl | 2 nM | – | – | 1.3 nM | 36.6 nM | – |
| – | – | – | O=C(Cc1ccc(F)cc1)Nc1ccc2[nH]cc(C3CCNCC3)c2c1 | 980 nM | – | – | 520 nM | 2600 nM | – |
| – | – | – | N[C@@H](CC(=O)N1C[C@H](CO)[C@@H](c2ccc(Cl)cc2)C1)Cc1ccc(Cl)cc1 | 280 nM | 2900 nM | 29.2 nM | – | – | Ki [11]: 420 nM; selectivity ratio [12]: 10.5 |
| – | – | – | COc1cccc(Cc2noc(-c3ccccc3OC3CCNCC3)n2)c1 | 70.8 nM | 3300 nM | 33 nM | – | – | Ki [11]: 2100 nM; selectivity ratio [12]: 47.8 |
| – | – | – | Cc1nn(C)c(C)c1Cc1nnc(-c2cc(Cl)ccc2OC2CCNCC2)o1 | 24.8 nM | – | – | – | – | – |
| – | – | – | Cc1nn(C)c(C)c1N(C)S(=O)(=O)c1c(Cl)cc(CCCN2CCNCC2)cc1Cl | 19.8 nM | – | – | 1.6 nM | 2.3 nM | – |
